Test results taken from patent US20070037785A1, “Novel dipeptidyl peptidase IV inhibitors used for functionally influencing different cells and treating immunological, infammatory, neuronal, and other diseases” (priority 2003, published 2007).

Target: dipeptidyl peptidase IV (Homo sapiens, UniProt P27487)
Test: biochemical
Conditions: values marked with "*" are ID50 values; read-out: IC50DPIV, values marked with "*" = ID50

Sequence of dipeptidyl peptidase IV (P27487 whole entry, species assumed): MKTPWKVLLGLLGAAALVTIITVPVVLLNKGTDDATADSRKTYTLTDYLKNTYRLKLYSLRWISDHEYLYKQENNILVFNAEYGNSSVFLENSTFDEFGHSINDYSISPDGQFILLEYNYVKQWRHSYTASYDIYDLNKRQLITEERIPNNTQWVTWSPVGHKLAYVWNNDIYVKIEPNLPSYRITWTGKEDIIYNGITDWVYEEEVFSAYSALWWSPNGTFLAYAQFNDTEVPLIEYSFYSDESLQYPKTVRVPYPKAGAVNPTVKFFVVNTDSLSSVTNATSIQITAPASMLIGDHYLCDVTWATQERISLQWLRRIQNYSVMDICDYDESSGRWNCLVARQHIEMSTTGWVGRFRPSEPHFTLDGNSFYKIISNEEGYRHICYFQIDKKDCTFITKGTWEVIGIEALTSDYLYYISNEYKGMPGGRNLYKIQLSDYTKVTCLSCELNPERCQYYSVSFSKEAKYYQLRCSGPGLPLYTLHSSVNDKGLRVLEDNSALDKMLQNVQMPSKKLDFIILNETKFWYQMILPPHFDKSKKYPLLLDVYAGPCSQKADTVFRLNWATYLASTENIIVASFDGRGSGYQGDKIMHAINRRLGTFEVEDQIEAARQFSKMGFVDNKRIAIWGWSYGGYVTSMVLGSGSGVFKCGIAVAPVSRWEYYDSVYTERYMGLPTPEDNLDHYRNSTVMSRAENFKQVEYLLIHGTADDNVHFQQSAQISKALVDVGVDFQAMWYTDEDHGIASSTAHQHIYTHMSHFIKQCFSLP

**Q.** How did the IC50 turn out when `O=C(CNC(=O)c1cccc(F)c1)N/N=C/c1cc(Br)cc(Br)c1OC(=O)c1cccc(Br)c1` [D10.102] was run?
**A.** 91.9 µM

**Q.** `COc1ccc(N(C(C)C(=O)N/N=C/c2ccc(Cl)cc2Cl)S(C)(=O)=O)cc1` (stereo not shown) [D9.001] was tested. Which IC50 did it give?
**A.** 2.9 µM

**Q.** `CCC(O)(CC)C(=O)NN(C(=O)CNS(=O)(=O)c1ccc(C)cc1)c1ccccc1` [D14.007] was tested. Which IC50 did it give?
**A.** 456 µM

**Q.** With `N/C(=N/[N+](=O)[O-])N/N=C/c1ccc(-c2cccc(Cl)c2Cl)o1` [D10.142] as the compound, how does the IC50 read?
**A.** 609 µM

**Q.** How did the IC50 turn out when `CC1(C)NCC(c2ccccc2)CC1O` (stereo not shown) [D4.088] was run?
**A.** 96.2 µM

**Q.** How did the IC50 turn out when `Cc1ccccc1NC(=O)c1cc2c3c(c1)C1C=CCC1CN3CC1CC=CC21` (stereo not shown) [D3.110] was run?
**A.** 279 µM

**Q.** `COC(=O)c1cccc(NC(=O)/C(=C\c2ccc3c(c2)OCO3)NC(=O)c2ccc(Br)o2)c1` [D12.043] was tested. Which IC50 did it give?
**A.** 92.2 µM

**Q.** Which IC50 does the source give for `COc1cc(OC)cc(N2C(=O)CSCC2=O)c1` [D4.005] here?
**A.** 3.8 µM

**Q.** Which IC50 does the source give for `O=C(N/N=C/c1cc(Br)ccc1OC(=O)c1ccc([N+](=O)[O-])cc1)/C(=C\c1ccc2c(c1)OCO2)NC(=O)c1ccccc1` [D10.133] here?
**A.** 272 µM

**Q.** How did the IC50 turn out when `CSc1ccc(/C=N/NC(=O)c2cccs2)cc1` [D10.141] was run?
**A.** 498 µM

**Q.** Which IC50 does the source give for `O=C(N/N=C/c1cc(Br)ccc1OC(=O)c1ccc([N+](=O)[O-])cc1)/C(=C\c1ccc2c(c1)OCO2)NC(=O)c1ccccc1` [D3.109] here?
**A.** 272 µM

**Q.** For `O=C(N/N=C/c1ccccc1O)c1cc(-c2ccc3ccccc3c2)n[nH]1` [D10.130], which IC50 is on record?
**A.** 255 µM

**Q.** For `COc1ccc(N(C(C)C(=O)N/N=C/c2ccc(Cl)cc2Cl)S(C)(=O)=O)cc1` (stereo not shown) [D10.003], which IC50 is on record?
**A.** 2.9 µM

**Q.** With `CCOc1cc(/C=N/NC(=O)c2nnn(-c3nonc3N)c2-c2ccccc2)ccc1OC` [D10.132] as the compound, how does the IC50 read?
**A.** 271 µM

**Q.** How did the IC50 turn out when `CCOC(=O)c1c(NC(=O)c2cccc([N+](=O)[O-])c2)sc(C(C)=O)c1C` [D6.117] was run?
**A.** 215 µM

Same assay, conditions: values without "*" = IC-50; read-out: IC50DPIV

**Q.** `O=C(N/N=C\c1cccc(OC(=O)c2ccc([N+](=O)[O-])cc2)c1)/C(=C/c1ccc2c(c1)OCO2)NC(=O)c1ccccc1` [D10.043] was tested. Which IC50 did it give?
**A.** 24.2 µM

**Q.** For `CCOC(=O)c1ccc(-c2ccc(/C=C3\C(=O)N(CCO)C(=O)C(C#N)=C3C)o2)cc1` [D6.087], which IC50 is on record?
**A.** 65.9 µM

**Q.** For `O=C1CCCC(=O)N1c1ccc(N2CCN(Cc3ccccc3)CC2)c([N+](=O)[O-])c1` [D4.035], which IC50 is on record?
**A.** 24.5 µM

**Q.** `O=C(N/N=C/c1cc([N+](=O)[O-])cc([N+](=O)[O-])c1O)/C(=C/c1ccc([N+](=O)[O-])cc1)NC(=O)c1ccccc1` [D10.069] was tested. Which IC50 did it give?
**A.** 45.7 µM

**Q.** For `O=C1c2ccc(-c3nc4ccccc4c(=O)o3)cc2C(=O)N1c1ccc(Cc2ccc(N3C(=O)c4ccc(-c5nc6ccccc6c(=O)o5)cc4C3=O)cc2)cc1` [D4.037], which IC50 is on record?
**A.** 27.7 µM

**Q.** Which IC50 does the source give for `CC1CCN(C(=O)/C(=C\c2ccco2)NC(=O)c2ccc(Cl)cc2)CC1` [D6.027] here?
**A.** 18.5 µM

**Q.** For `O=C1C(N2CCOCC2)=C(Cl)/C(=N/S(=O)(=O)c2ccc(Cl)cc2)C(Cl)(Cl)C1(Cl)Cl` [D4.075], which IC50 is on record?
**A.** 66.6 µM

**Q.** How did the IC50 turn out when `O=C(CNc1ccc2ccccc2c1)N/N=C1/C(=O)Nc2ccc([N+](=O)[O-])cc21` [D10.032] was run?
**A.** 18.2 µM

**Q.** For `CC(=O)Oc1cc2oc(=O)cc(C)c2cc1OC(C)=O` [D3.078], which IC50 is on record?
**A.** 59.2 µM

**Q.** `Cc1ccc(Cn2cccc2/C=N/NC(=S)Nc2ccc(C)c(C)c2)cc1` [D10.077] was tested. Which IC50 did it give?
**A.** 55.2 µM

**Q.** `CCOC(=O)C(NC(=O)c1ccc(OC)cc1)(N1CCOCC1)C(F)(F)F` (stereo not shown) [D5.021] was tested. Which IC50 did it give?
**A.** 29.2 µM

**Q.** Which IC50 does the source give for `COc1ccc(Br)cc1/C=N/NC(=O)COc1ccc(C)cc1[N+](=O)[O-]` [D10.068] here?
**A.** 45.6 µM

**Q.** With `N#Cc1c(NC(=O)C(C(F)(F)F)C(F)(F)F)sc2c1CCCC2` [D6.058] as the compound, how does the IC50 read?
**A.** 39.5 µM

**Q.** For `CCOc1cc(/C=N/NC(=O)c2cc(C)oc2C)ccc1O` [D10.025], which IC50 is on record?
**A.** 16.2 µM

**Q.** How did the IC50 turn out when `CCCn1c(N2CCN(CC(=O)c3c[nH]c4ccccc34)CC2)nc2c1c(=O)[nH]c(=O)n2C` [D6.046] was run?
**A.** 30.8 µM

**Q.** With `CS(=O)(=O)N1CCN(C(=O)Nc2ccc(C(F)(F)F)cc2)C1C(=O)NCc1cccc(N)c1` (stereo not shown) [D9.007] as the compound, how does the IC50 read?
**A.** 40.5 µM

**Q.** `Cc1cccc(C(=O)N/N=C/c2c(O)ccc3ccccc23)c1` [D10.072] was tested. Which IC50 did it give?
**A.** 46.7 µM

**Q.** With `O=C1NCCCCC1Nc1ccc(N2C(=O)CCCC2=O)cc1[N+](=O)[O-]` (stereo not shown) [D1.003] as the compound, how does the IC50 read?
**A.** 34.1 µM

**Q.** For `C=CCOC(=O)c1cc(-c2ccc(/C=C3/C(=O)N(CCCO)C(=O)C(C#N)=C3C)o2)ccc1Cl` [D4.054], which IC50 is on record?
**A.** 44.6 µM

**Q.** `COC(=O)C(CC(C)C)Nc1ccc(N2C(=O)CCCC2=O)cc1[N+](=O)[O-]` (stereo not shown) [D4.021] was tested. Which IC50 did it give?
**A.** 15.4 µM

**Q.** Which IC50 does the source give for `O=C(N/N=C/c1cc(Br)c(O)c(Br)c1O)/C(=C\c1ccc2c(c1)OCO2)NC(=O)c1ccccc1` [D12.032] here?
**A.** 60 µM

**Q.** Which IC50 does the source give for `Cc1csc(/C(=N\OC(=O)c2ccco2)C(N)=O)n1` [D11.009] here?
**A.** 32.8 µM

**Q.** Which IC50 does the source give for `CCCn1c(N2CCN(CC(=O)c3c(C)n(C)c4ccccc34)CC2)nc2c1c(=O)[nH]c(=O)n2C` [D4.019] here?
**A.** 15.2 µM

**Q.** How did the IC50 turn out when `Cc1ccccc1NC(=O)CSC1=NCCN1` [D6.057] was run?
**A.** 38.1 µM

**Q.** For `CCOC(=O)c1c(C)oc2c1c1c(c3ccccc32)OCN(C2CCS(=O)(=O)C2)C1` (stereo not shown) [D4.045], which IC50 is on record?
**A.** 34.2 µM

Test system: Dextran Sulfate-induced Colitis of Mice
Test: Dextran sulfate-induced colitis of mice, disease score
Assay type: in vivo, Balb/c mice
Conditions: 10 pg single inhibitor i.p. on three successive days from day 5; day 7; slight, but insignificant

**Q.** How did the “reduction of the heaviness of the disease (score)” value turn out when `CCCCC[C@H](CC(=O)NO)C(=O)N[C@H](C(=O)N1CCC[C@H]1CO)C(C)C` [Actinonine] was run?
**A.** −16.5%

Test system: Ovalbumine-induced Asthma Bronchiale of Mice
Test: Ovalbumine-induced asthma bronchiale of mice, pulmonal function (EF50)
Assay type: in vivo, Balb/c Mice
Conditions: 0.1 mg (of each) inhibitor i.p. on days 28-35; FIG. 3A
Description: Therapeutic Effect of the Combined Inhibition of Dipeptidyl Peptidase IV and of Enzymes Having an Analogous Effect as well as of the Alanyl Aminopeptidase and of Enzymes Having an Analogous Effect on the Ovalbumine-induced Asthma Bronchiale of Mice (Animal Model of Human Asthma Bronchiale).
Female Balb/c Mice were sensitized for the antigen ovalbumine capable of inducing asthma bronchiale by an intreperitoneal administration of […] ovalbumine on the days 0, 14 and 21. On day 27/28, the animals received a boostering dose of ovalbumine by inhalation [vD3]. After an intreperitoneal administration of the peptidase inhibitors on the days 28-35, there was effected an intranasal ovalbumine challenge on day 35, as well as a check of the allergic premature reaction via the pulmonal function. There were measured: the average expiratory flux (EF50), the tidal volume, the respiration rate and the minute volume as well as the number of eosinophilic granulocytes in the bronchoalveolar lavage. 8 to 10 animals were used per experimental group. By way of example, in FIG. 3A, there is summarized the effect of the peptidase inhibitors on the reduction of the EF50 value. […] Group E represents animals which were not sensitized by OVA, but which were subjected—beyond that—all procedures to which the animal groups A to D were subjected.

**Q.** `CCCCC[C@H](CC(=O)NO)C(=O)N[C@H](C(=O)N1CCC[C@H]1CO)C(C)C` [Actinonine] was tested. Which “therapeutic effect on the reduction of the EF50 value” did it give?
**A.** showed a therapeutic effect

**Q.** Which “therapeutic effect on the reduction of the EF50 value” does the source give for `N[C@@H](CCCCNC(=O)OCc1ccc([N+](=O)[O-])cc1)C(=O)N1CCCC1` [Lys[Z(NO2)] pyrrolidide] here?
**A.** showed a therapeutic effect
